Test results: US5221616A, “Prevention of spontaneous complement activation in mammalian biological fluids” (Quidel Corporation, priority 1988, dated 1993)

Tests used:
C3 [1] = target: T1, C3 (Homo sapiens, UniProt P01024); assay: iC3b fragment EIA: spontaneous C3 activation in EDTA-NHP incubated with increasing concentrations of polyhydroxyl compound in water; type: biochemical; conditions: 22° C. for 48 hr
T1 construct: 250 μL of freshly drawn EDTA-normal human plasma (EDTA-NHP); from tissue; host or cells: normal human blood plasma (EDTA plasma; in A12 also citrate and heparin plasma)
Experimental: FIG. 1. […] 250 μL of freshly drawn EDTA-normal human plasma (EDTA-NHP) was mixed with 0 to 250 μL of 4M β-D-glucose dissolved in deionized water. All reaction mixtures were brought up to a final reaction volume of 500 μL using deionized water as the diluent. Each reaction mixture was mixed thoroughly, incubated at 22° C. for 48 hr and assayed for iC3b fragment levels. A non-incubated control (-70° C.) was prepared by mixing 1 part EDTA-NHP with 1 part 4M β-D-glucose dissolved in deionized water. This control reaction mixture was stored at -70° C. until it was assayed in the iC3b fragment EIA along with the incubated experimental samples.
Several different polyhydroxyl compounds were individually dissolved in deionized water to obtain solutions of each compound at a concentration approaching saturation at 22° C. Freshly drawn EDTA-NHP was mixed with increasing concentrations of the polyhydroxyl compound to be tested keeping the final reaction volumes constant. For example, 250 μL of freshly drawn EDTA-NHP was mixed with 0 to 250 μL of the concentrated polyhydroxyl solution to be tested. All reaction mixtures were brought up to a final reaction volume of 500 μL using deionized water as the diluent. Each reaction mixture was mixed thoroughly and incubated at 22° C. for 48 hr. A non-incubated control was prepared for each experiment by mixing 1 part EDTA-NHP with 1 part of the concentrated polyhydroxyl solution to be tested. This control mixture was held at -70° C. until it was thawed out, along with the other experimental samples, and assayed for the occurrence of spontaneous complement activation. For this initial set of experiments, iC3b fragment levels were quantitated in all test samples using the Cytotech monoclonal antibody based EIA procedure. The first analyte selected to be measured was iC3b since, based on previously published data as outlined above, it was anticipated that the C3 protein would be the most susceptible to spontaneous activation upon storage of EDTA-NHP in vitro.
All of the EIA tests employed in these studies utilized solid-phase monoclonal antibody capture assay kit procedures (Cytotech, Inc., San Diego, Calif.). The procedure was basically the same for each EIA kit. Briefly, in the first step of each EIA assay, 100 μL of standards, controls and diluted test specimens were incubated at 22° C., i.e., room temperature, in duplicate polystyrene microtiter wells precoated with a capture monoclonal antibody which specifically reacted with the complement fragment or complex under investigation. During this first incubation period, complement fragments or complexes were bound to the monoclonal antibody coated microassay wells. A wash cycle removed unbound materials.
In the second step, 50 μL of horseradish peroxidase (HRP)-conjugated purified IgG antibody, which reacted with the captured complement fragment or complex analyte, was added to each well and incubated at 22° C. A wash cycle removed unbound conjugate.
In the third step, 100 μL of the HRP enzyme substrate ABTS (0.034% ABTS and 0.0126% H2 O2 in 100 mM sodium citrate buffer, pH 4.0) was added to each well and incubated at 22° C. The bound HRP-conjugatedantibody reacted with the ABTS substrate producing a green color which was proportional to the amount of specimen analyte bound. The HRP-enzymatic reaction was stopped upon addition of 50 μL 250 mM oxalic acid. The substrate color intensity present in each well was measured at 405 nm using an automated EIA microplate reader and the analyte concentration/mL in the original test specimen was determined for each analyte from the appropriate standard curve.
iC3b EIA: The capture mouse monoclonal antibody used to coat microtiter wells for the iC3b fragment EIA was Cytotech MoAb 013III-1.1.6.1 which reacts with a neoantigenic determinant expressed on the iC3b activation fragment of human C3.

C3 [2] = target: T1, C3; assay: polyhydroxyl compounds in Buffer B mixed with EDTA-NHP: iC3b and C3d,g/iC3b fragment EIA; type: biochemical; conditions: final concentration 2M, 22° C. for 48 hr
Experimental: An extensive series of experiments were conducted to examine the ability of a large variety of polyhydroxyl compounds to prevent the spontaneous activation of C in EDTA-NHP during in vitro storage at 22° C for 48 hr. EDTA-NHP was mixed with an equal volume of Buffer B containing the polyhydroxyl compound to be tested. In these experiments Buffer B consisted of 40 mM EDTA and 30 IU sodium heparin/mL dissolved in deionized water, pH 7.2. The final concentration of polyhydroxyl compound dissolved in Buffer B varied for each compound due to differences in solubility. For each set of experiments, EDTA-NHP was also diluted and mixed with an equal volume of PBS (untreated control). The EDTA-NHP samples mixed with each polyhydroxyl compound dissolved in Buffer B and the corresponding untreated controls were incubated at 22° C. for 48 hr, stored at -70° C. and subsequently assayed for C4d, iC3b, C3d,g/iC3b and Bb complement fragment levels as well as for circulating immune complex levels using the Raji Cell Replacement EIA. […] This conclusion was based upon the iC3b percent protection values determined for each of the polyhydroxyl compounds (treated samples) as listed in FIG. 14.
The concentrations, expressed as μg analyte/mL, of a number of different activation products of spontaneous complement activation were measured in the course of these experiments. In an effort to normalize the data obtained from the various determinations so that the results from different assays could be directly compared to one another, a percent protection value was calculated for each analyte measured. The precent protection values were calculated by dividing the μg analyte/mL in the non-incubated, time-zero control sample by the μg analyte/mL in the experimental sample, multiplied by 100%. A percent protection value of 70 to 130% for any given analyte measured in an experimental sample was considered to indicate that the invention formulation tested was fully effective at providing protection against the occurrence of spontaneous complement activation. Ideally, the effective composition formulation would provide full protection against the occurrence of spontaneous complement activation in a complement-containing sample for all of the analytes measured. In fact, this was the case with several polyhydroxyl compounds when they were present in sufficiently high concentrations in a preferred embodiment of the invention.
A plasma dilution of 1:50 and a serum dilution of 1:100 were used in the iC3b fragment EIA tests. The immunochemical reaction specificity of MoAb 013III-1.1.6.1 has been published previously in abstract form, W. P. Kolb, et al., Fed. Proc. 44:990 (1985).
A plasma dilution of 1:250 and a serum dilution of 1:500 were used in the C3d,g/iC3b EIA tests. […] 135:2015-2019 (1985); Y. Kanayama, et al., J. Immunol. Meth. 88:33-36 (1986). The immunochemical reaction specificity of the Cytotech MoAb 013III-31.4.3.2.2has been published previously in abstract form, W. P. Kolb, et al., FASEB Journal 2:A1834 (1988).

T1 sequence (P01024 672-1663 limits assumed): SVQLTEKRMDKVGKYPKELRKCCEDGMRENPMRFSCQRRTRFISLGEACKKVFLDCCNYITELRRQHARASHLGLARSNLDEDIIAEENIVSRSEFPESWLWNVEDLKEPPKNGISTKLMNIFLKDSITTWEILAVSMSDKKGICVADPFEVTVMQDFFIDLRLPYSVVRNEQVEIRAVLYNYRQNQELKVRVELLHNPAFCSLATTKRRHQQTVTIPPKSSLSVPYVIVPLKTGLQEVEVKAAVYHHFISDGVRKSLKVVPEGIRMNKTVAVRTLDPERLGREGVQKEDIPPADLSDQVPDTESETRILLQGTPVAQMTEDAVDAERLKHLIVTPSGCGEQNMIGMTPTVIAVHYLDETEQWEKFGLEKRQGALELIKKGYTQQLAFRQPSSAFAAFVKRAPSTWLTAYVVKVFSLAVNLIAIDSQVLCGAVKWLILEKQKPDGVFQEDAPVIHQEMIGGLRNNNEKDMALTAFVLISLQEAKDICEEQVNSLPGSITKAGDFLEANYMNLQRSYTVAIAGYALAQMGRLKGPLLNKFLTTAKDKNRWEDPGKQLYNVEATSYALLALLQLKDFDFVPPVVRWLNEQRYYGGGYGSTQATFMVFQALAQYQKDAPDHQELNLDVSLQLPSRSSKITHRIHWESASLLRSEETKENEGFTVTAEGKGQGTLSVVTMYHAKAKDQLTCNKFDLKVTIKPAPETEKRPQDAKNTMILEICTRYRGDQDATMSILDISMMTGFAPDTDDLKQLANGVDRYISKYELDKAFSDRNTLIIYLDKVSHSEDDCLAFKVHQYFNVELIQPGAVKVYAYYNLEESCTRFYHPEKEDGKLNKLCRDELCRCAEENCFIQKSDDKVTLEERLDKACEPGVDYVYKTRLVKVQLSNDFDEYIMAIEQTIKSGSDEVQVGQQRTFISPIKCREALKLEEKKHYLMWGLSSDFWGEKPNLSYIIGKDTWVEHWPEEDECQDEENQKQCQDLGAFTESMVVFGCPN
T1 sequence (P01024 23-667 limits assumed): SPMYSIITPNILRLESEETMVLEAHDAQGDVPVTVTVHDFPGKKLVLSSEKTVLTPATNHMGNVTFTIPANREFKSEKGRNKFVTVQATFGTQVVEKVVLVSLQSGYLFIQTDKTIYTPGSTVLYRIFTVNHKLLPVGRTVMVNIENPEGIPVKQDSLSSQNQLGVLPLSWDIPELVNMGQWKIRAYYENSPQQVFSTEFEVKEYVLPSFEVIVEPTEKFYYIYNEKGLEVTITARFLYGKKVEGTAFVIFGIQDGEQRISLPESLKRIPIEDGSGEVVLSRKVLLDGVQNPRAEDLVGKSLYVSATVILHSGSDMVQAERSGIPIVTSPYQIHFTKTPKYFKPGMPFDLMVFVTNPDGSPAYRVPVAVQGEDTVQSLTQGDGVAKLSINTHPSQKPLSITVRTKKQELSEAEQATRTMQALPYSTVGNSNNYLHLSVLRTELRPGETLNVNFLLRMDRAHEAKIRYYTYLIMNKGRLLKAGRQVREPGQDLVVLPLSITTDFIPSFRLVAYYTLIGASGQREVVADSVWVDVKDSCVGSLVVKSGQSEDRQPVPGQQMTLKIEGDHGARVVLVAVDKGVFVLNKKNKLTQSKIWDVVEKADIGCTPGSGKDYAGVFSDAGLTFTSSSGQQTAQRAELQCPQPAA

- final concentration that completely prevented spontaneous iC3b fragment production (C3 [1]; compared with -70° C. control): ≥ 1.3 M
- spontaneous iC3b fragment production (C3 [1]; increasing final concentrations of compound (galactose up to 2M)): inhibited with increasing concentrations
- prevention of spontaneous activation of C3 (C3 [2]): completely prevented
Compound: OC[C@H]1O[C@@H](O)[C@H](O)[C@@H](O)[C@@H]1O [β-D-glucose]
